Measured values taken from patent publication US11920126B2, “Bio-manufacturing process” (priority 2018, dated 2024).

Columns and labels:
Trichoderma = experiment: Trichoderma-loaded feedstocks co-cultured with engineered Streptomyces; type: cell-based; settings: feedstocks loaded with Trichoderma spores, no production fungus
Protocol: The efficacy of inhibitory properties was tested in feedstocks without the addition of the fungus. Feedstocks were loaded with Trichoderma spores, a common mold contaminate. Engineered Streptomyces was then co-cultured in these contaminated feedstocks, and the inhibitory effects were recorded.

Ascomycete contaminants = experiment: natamycin inhibition, in vitro liquid media culture; type: cell-based; settings: cultured in vitro (liquid media)
Source text: Streptomyces natalensis naturally produces low levels of pimaricin, also known as natamycin, which is a fungicide with the ability to bind to sterols found in fungal cell membranes, thus making the cell wall permeable and lysing the cell. This fungicide has greater activity against Ascomycete contaminants, versus production fungi Ganoderma or Trametes. Natamycin's affinity for non-basidiomycetes species make this particular antifungal an attractive target for expression during cultivated manufacturing.
By up-regulating the expression of pimM, the total yield of natamycin produced by our Streptomyces natalensis strains was increased. In this respect, natamycin production in wild type Streptomyces natalensis […] the effective range of inhibition (5 ug/mL) when cultured in vitro (liquid media). […] Engineering a bacterium strain with increased natamycin potency helps to reduce the bacterial loading needed for substrate bioburden mitigation, thus further reducing process and material cost.

## C[C@@H]1C/C=C/C=C/C=C/C=C/[C@H](O[C@@H]2O[C@H](C)[C@@H](O)[C@H](N)[C@@H]2O)C[C@@H]2O[C@](O)(C[C@@H](O)C[C@H]3O[C@@H]3/C=C/C(=O)O1)C[C@H](O)[C@H]2C(=O)O [natamycin]
Trichoderma
  inhibitory effect of Trichoderma in feedstocks as a function of natamycin expression: strong linear inhibitory effect
Ascomycete contaminants
  effective range of inhibition: 5 µg/mL
